Where two headings read alike, the source gives them in different places. Marks after values point to notes of the source that are not given here.
Key:
CYP1A2 = conditions: in vitro studies; cited from earlier work
human DPP-II = conditions: selectivity; cited from earlier work
[1] = system: streptozotocin-induced diabetic mice; conditions: cited from earlier work
CYP2D6 = conditions: in vitro studies; cited from earlier work
CYP2C19 = conditions: in vitro studies; cited from earlier work
CYP3A4 [2] = conditions: in vitro studies; cited from earlier work
CYP2C9 = conditions: in vitro studies; cited from earlier work
CYP3A4 [3] = conditions: in vitro studies; cited from earlier work; remark: listed apart in the source
[4] = dose range 1.25–60 mg, healthy volunteers; cited from earlier work
serum glucose = experiment: Postprandial serum glucose in healthy subjects; assay type: in vivo, human
[5] = system: antiphagocytic protein 1 (APP1); conditions: selectivity; cited from earlier work
human DPP-VIII = conditions: selectivity; cited from earlier work
[6] = system: fibroblast activation protein-alpha (FAPα); conditions: selectivity; cited from earlier work
granzyme B = conditions: selectivity; cited from earlier work
human DPP-IX = conditions: selectivity; cited from earlier work
whole blood insulin = experiment: Postprandial whole blood insulin in healthy subjects; assay type: in vivo, human
human DPP-I = conditions: selectivity; cited from earlier work
prolidase = conditions: selectivity; cited from earlier work
[7] = Safety and tolerability assessment; assay type: in vivo, human
active GLP-1 = experiment: Postprandial plasma active GLP-1 in healthy subjects; assay type: in vivo, human
db/db mice = conditions: young leptin receptor-deficient db/db mice; cited from earlier work
[8] = system: cytochrome P450 (CYP) 3A4; conditions: in vitro studies; cited from earlier work
high fat diet-fed mice = conditions: cited from earlier work
[9] = cited from earlier work
[10] = baseline corrected, day 1, 5 mg
[11] = baseline corrected, day 1, 10 mg
[12] = baseline corrected, day 1, 20 mg
[13] = baseline corrected, day 10, 5 mg
[14] = baseline corrected, day 10, 10 mg
[15] = baseline corrected, day 10, 20 mg
[16] = baseline uncorrected, day 1, 5 mg
[17] = baseline uncorrected, day 1, 10 mg
[18] = baseline uncorrected, day 1, 20 mg
[19] = baseline uncorrected, day 10, 5 mg
[20] = baseline uncorrected, day 10, 10 mg
[21] = baseline uncorrected, day 10, 20 mg
[22] = 5 mg (N=8), judged to be related to the study drug
[23] = 5 mg once daily for 10 days (N=8)
[24] = 10 mg (N=8), judged to be related to the study drug
[25] = 10 mg once daily for 10 days (N=8)
[26] = 20 mg (N=8), judged to be related to the study drug
[27] = 20 mg once daily for 10 days (N=8)

CC(C)(C)OC[C@@H]1C(=O)NCCN1C(=O)C[C@H](N)Cc1cc(F)c(F)cc1F [Evogliptin]
inhibition of CYP1A2 (CYP1A2): nor an inhibitor | potency for DPP-IV compared to human DPP-II (human DPP-II): more than 20,000 times | interindividual variability (CV%) of AUCτ,ss (5-20 mg): < 20% | interindividual variability (CV%) of Cmax,ss (5-20 mg): < 30% | time to attain steady state (all dosage groups, once daily): ≤ 3 days | fess (fraction of the administered drug excreted into the urine at the steady state) (day 10, 5 mg once daily, mean ± SD): 0.34±0.08 | fess (fraction of the administered drug excreted into the urine at the steady state) (day 10, 10 mg once daily, mean ± SD): 0.27±0.12 | fess (fraction of the administered drug excreted into the urine at the steady state) (day 10, 20 mg once daily, mean ± SD): 0.27±0.04 | CLss/F (day 10, steady state, 5 mg once daily, mean ± SD): 49.4 ± 9.6 L/h | CLss/F (day 10, steady state, 10 mg once daily, mean ± SD): 63.4 ± 10.7 L/h | CLss/F (day 10, steady state, 20 mg once daily, mean ± SD): 54.3 ± 8.6 L/h | Tmax (human, in vivo): 4 to 5 h | AUC(0-t) (human, in vivo, 5 mg): 73 ± 15.3 ng·h/mL | Cmax (human, in vivo, 5 mg, Cmax, day 1, 5 mg, mean ± SD): 4.9 ± 1.8 ng/mL | Cmax (human, in vivo, 5 mg, Cmax,ss, day 10, steady state, 5 mg once daily, mean ± SD): 6.7 ± 1.9 ng/mL | half-life (human, in vivo, 5 mg, t1/2,ss, day 10, steady state, 5 mg once daily, mean ± SD): 32.9 ± 6.1 h | AUC(0-t) (human, in vivo, 10 mg): 118 ± 24.2 ng·h/mL | Cmax (human, in vivo, 10 mg, Cmax, day 1, 10 mg, mean ± SD): 9.5 ± 2.1 ng/mL | AUC(0-t) (human, in vivo, 20 mg): 254 ± 44 ng·h/mL | Cmax (human, in vivo, 20 mg, Cmax, day 1, 20 mg, mean ± SD): 21.7 ± 3.7 ng/mL | Tmax (human, in vivo, po, 5 mg): 5.1 h | Tmax (human, in vivo, po, 10 mg): 5 h | Tmax (human, in vivo, po, 20 mg): 4.5 h | dose linearity of PKs (within the 5–20 mg dose range, repeated administration): linear PKs | effect on β-cell replication and neogenesis [1]: increased β-cell replication and neogenesis | inhibition of CYP2D6 (CYP2D6): nor an inhibitor | inhibition of CYP2C19 (CYP2C19): nor an inhibitor | enzyme mediating metabolism (CYP3A4 [2]): primarily mediated by CYP3A4 | inhibition of CYP2C9 (CYP2C9): nor an inhibitor | inhibition of CYP3A4 (CYP3A4 [3]): nor an inhibitor | dose proportionality of PKs after single dose [4]: dose-proportional PKs | tolerability after single dose [4]: good tolerability | reduction of baseline corrected AUEtotal of glucose compared to placebo (serum glucose; 5 mg): 20% | reduction of baseline corrected AUEtotal of glucose compared to placebo (serum glucose; 10 mg): 25% | reduction of baseline corrected AUEtotal of glucose compared to placebo (serum glucose; 20 mg): 35% | effect on fasting glucose levels (serum glucose; 5-20 mg): did not affect the fasting glucose levels | Average AUEtotal (CV%) Glucose (serum glucose; [10]): 264.1 (36.1) h·mg/dL | Average AUEtotal (CV%) Glucose (serum glucose; [11]): 234.9 (24.9) h·mg/dL | Average AUEtotal (CV%) Glucose (serum glucose; [12]): 229.7 (37.6) h·mg/dL | Average AUEtotal (CV%) Glucose (serum glucose; [13]): 259.4 (25.2) h·mg/dL | Average AUEtotal (CV%) Glucose (serum glucose; [14]): 242.8 (41.6) h·mg/dL | Average AUEtotal (CV%) Glucose (serum glucose; [15]): 209.3 (31.0) h·mg/dL | Average AUEtotal (CV%) Glucose (serum glucose; [16]): 741.3 (14.1) h·mg/dL | Average AUEtotal (CV%) Glucose (serum glucose; [17]): 747.3 (6.0) h·mg/dL | Average AUEtotal (CV%) Glucose (serum glucose; [18]): 747.8 (11.9) h·mg/dL | Average AUEtotal (CV%) Glucose (serum glucose; [19]): 759.6 (9.1) h·mg/dL | Average AUEtotal (CV%) Glucose (serum glucose; [20]): 751.4 (12.6) h·mg/dL | Average AUEtotal (CV%) Glucose (serum glucose; [21]): 727.0 (7.2) h·mg/dL | potency for DPP-IV compared to APP1 [5]: more than 20,000 times | potency for DPP-IV compared to human DPP-VIII (human DPP-VIII): 6,000 times | potency for DPP-IV compared to FAPα [6]: more than 20,000 times | potency for DPP-IV compared to granzyme B (granzyme B): more than 20,000 times | potency for DPP-IV compared to human DPP-IX (human DPP-IX): 6,000 times | Average AUEtotal (CV%) Insulin (whole blood insulin; [10]): 238.3 (15.0) h·μIU/mL | Average AUEtotal (CV%) Insulin (whole blood insulin; [11]): 315.1 (35.7) h·μIU/mL | Average AUEtotal (CV%) Insulin (whole blood insulin; [12]): 223.3 (50.8) h·μIU/mL | Average AUEtotal (CV%) Insulin (whole blood insulin; [13]): 270.9 (36.0) h·μIU/mL | Average AUEtotal (CV%) Insulin (whole blood insulin; [14]): 410.2 (62.6) h·μIU/mL | Average AUEtotal (CV%) Insulin (whole blood insulin; [15]): 301.3 (28.6) h·μIU/mL | Average AUEtotal (CV%) Insulin (whole blood insulin; [16]): 274.9 (14.2) h·μIU/mL | Average AUEtotal (CV%) Insulin (whole blood insulin; [17]): 360.2 (30.6) h·μIU/mL | Average AUEtotal (CV%) Insulin (whole blood insulin; [18]): 264.7 (44.0) h·μIU/mL | Average AUEtotal (CV%) Insulin (whole blood insulin; [19]): 311.3 (32.0) h·μIU/mL | Average AUEtotal (CV%) Insulin (whole blood insulin; [20]): 460.3 (57.2) h·μIU/mL | Average AUEtotal (CV%) Insulin (whole blood insulin; [21]): 349.5 (24.7) h·μIU/mL | potency for DPP-IV compared to human DPP-I (human DPP-I): more than 20,000 times | potency for DPP-IV compared to prolidase (prolidase): more than 20,000 times | Cough, number of cases ([7]; 5 mg (N=8)): 1 | Epigastric discomfort, number of cases ([7]; 5 mg (N=8)): 1 | Eyeball pain, number of cases ([7]; 5 mg (N=8)): 1 | Poor-quality sleep, number of cases ([7]; 5 mg (N=8)): 1 | Rhinorrhea, number of cases ([7]; 5 mg (N=8)): 1 | Sweating, number of cases ([7]; 5 mg (N=8)): 1 | Throat irritation, number of cases ([7]; 5 mg (N=8)): 1 | Vasovagal syncope, number of cases ([7]; 5 mg (N=8)): 1 | Fatigue, number of cases [7, 22]: 1 ^a | Insomnia, number of cases [7, 22]: 1 ^a | % of subjects with AEs in a group [7, 23]: 50% | AEs, number of cases [7, 23]: 10 | Musculoskeletal discomfort, number of cases ([7]; 10 mg (N=8)): 1 | Pharyngitis, number of cases ([7]; 10 mg (N=8)): 1 | Epigastric discomfort, number of cases [7, 24]: 1 ^a | Sweating, number of cases [7, 24]: 1 ^a | % of subjects with AEs in a group [7, 25]: 50% | AEs, number of cases [7, 25]: 5 | Joint pain, number of cases ([7]; 20 mg (N=8)): 1 | Prurigo, number of cases ([7]; 20 mg (N=8)): 1 | Headache, number of cases [7, 26]: 1 ^a | Increased urinary frequency, number of cases [7, 26]: 1 ^a | % of subjects with AEs in a group [7, 27]: 37.5% | AEs, number of cases [7, 27]: 4 | Serious AEs ([7]; 5-20 mg once daily for 10 days): No serious AEs were reported | Severity of AEs ([7]; 5-20 mg once daily for 10 days): all AEs were mild in severity | AEs, number of cases in subjects administered evogliptin ([7]; all evogliptin dose groups, 5-20 mg for 10 days): 19 cases | Subjects with AEs among those administered evogliptin ([7]; all evogliptin dose groups, eleven subjects): 45.8% | Tolerability of repeated administration ([7]; healthy subjects, 5–20 mg dose range): well tolerated | Average AUEtotal (CV%) GLP-1 (active GLP-1; [10]): 25.7 (48.3) pM·h | Average AUEtotal (CV%) GLP-1 (active GLP-1; [11]): 24.9 (46.0) pM·h | Average AUEtotal (CV%) GLP-1 (active GLP-1; [12]): 45.3 (73.8) pM·h | Average AUEtotal (CV%) GLP-1 (active GLP-1; [13]): 25.4 (56.7) pM·h | Average AUEtotal (CV%) GLP-1 (active GLP-1; [14]): 22.2 (41.0) pM·h | Average AUEtotal (CV%) GLP-1 (active GLP-1; [15]): 35.5 (67.3) pM·h | Average AUEtotal (CV%) GLP-1 (active GLP-1; [16]): 55.8 (49.6) pM·h | Average AUEtotal (CV%) GLP-1 (active GLP-1; [17]): 55.0 (35.9) pM·h | Average AUEtotal (CV%) GLP-1 (active GLP-1; [18]): 82.8 (55.3) pM·h | Average AUEtotal (CV%) GLP-1 (active GLP-1; [19]): 75.7 (111.2) pM·h | Average AUEtotal (CV%) GLP-1 (active GLP-1; [20]): 52.6 (25.0) pM·h | Average AUEtotal (CV%) GLP-1 (active GLP-1; [21]): 72.8 (37.0) pM·h | effect on onset of diabetes (db/db mice): delayed the onset of diabetes | induction of CYP3A4 [8]: not an inducer | effect on insulin sensitivity (high fat diet-fed mice): improved insulin sensitivity

CC#CCn1c(N2CCC[C@@H](N)C2)nc2c1c(=O)n(Cc1nc(C)c3ccccc3n1)c(=O)n2C [linagliptin]
terminal elimination half-life [9]: 120 h

— publication PMC4199987 (Drug Design, Development and Therapy, 2014)
